Laboratory results as given in the supplement of paper PMC12463676, “Small-molecule dissolution of stress granules by redox modulation benefits ALS models” (Nature Chemical Biology, 2025).

Columns and labels:
lipoamide = compound: NC(=O)CCCCC1CCSS1 [lipoamide]; assay: thermal stability z-score vs DMSO; higher = more thermally stabilized by treatment; conditions: HeLa, lipoamide concentration 100 µM
Description: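 Cellular thermal proteome profiling in HeLa cells. Cells were treated with 100 µM lipoamide for 1 h, with or without 1 mM arsenate for a further 1 h, then heated to ten temperatures (37-66.3 °C), and soluble protein was quantified by TMT mass spectrometry relative to 0.1% DMSO controls. The thermal stability score (sum of log2 fold changes minus the abundance score) was transformed to a z-score; mean of n = 3 experiments.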

potassium arsenate = compound: O=[As]([O-])(O)O.[K+] [potassium arsenate]; assay: as above; conditions: HeLa; arsenate concentration 1 mM
Description: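 Cellular thermal proteome profiling in HeLa cells treated with 1 mM arsenate for 1 h (DMSO pretreatment), heated to ten temperatures (37-66.3 °C). Soluble protein was quantified by TMT mass spectrometry relative to DMSO controls; the thermal stability score was transformed to a z-score; mean of n = 3 experiments.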

[1] = arsenate co-treatment: 1 mM arsenate 1 h
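Also: each temperature applied for 3 min, abundance score taken as mean log2 fold change at the two lowest temperatures, z-score obtained by mean subtraction and division by SD.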

UniProt O43709, sequence (O43709 whole entry): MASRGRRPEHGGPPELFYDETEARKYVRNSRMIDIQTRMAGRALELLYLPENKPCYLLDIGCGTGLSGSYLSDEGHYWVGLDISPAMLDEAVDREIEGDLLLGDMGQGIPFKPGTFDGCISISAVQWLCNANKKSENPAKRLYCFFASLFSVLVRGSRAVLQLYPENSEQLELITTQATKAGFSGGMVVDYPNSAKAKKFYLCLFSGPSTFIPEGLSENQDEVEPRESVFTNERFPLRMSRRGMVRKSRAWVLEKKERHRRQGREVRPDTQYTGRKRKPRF
UniProt A3KMH1, sequence (A3KMH1 whole entry): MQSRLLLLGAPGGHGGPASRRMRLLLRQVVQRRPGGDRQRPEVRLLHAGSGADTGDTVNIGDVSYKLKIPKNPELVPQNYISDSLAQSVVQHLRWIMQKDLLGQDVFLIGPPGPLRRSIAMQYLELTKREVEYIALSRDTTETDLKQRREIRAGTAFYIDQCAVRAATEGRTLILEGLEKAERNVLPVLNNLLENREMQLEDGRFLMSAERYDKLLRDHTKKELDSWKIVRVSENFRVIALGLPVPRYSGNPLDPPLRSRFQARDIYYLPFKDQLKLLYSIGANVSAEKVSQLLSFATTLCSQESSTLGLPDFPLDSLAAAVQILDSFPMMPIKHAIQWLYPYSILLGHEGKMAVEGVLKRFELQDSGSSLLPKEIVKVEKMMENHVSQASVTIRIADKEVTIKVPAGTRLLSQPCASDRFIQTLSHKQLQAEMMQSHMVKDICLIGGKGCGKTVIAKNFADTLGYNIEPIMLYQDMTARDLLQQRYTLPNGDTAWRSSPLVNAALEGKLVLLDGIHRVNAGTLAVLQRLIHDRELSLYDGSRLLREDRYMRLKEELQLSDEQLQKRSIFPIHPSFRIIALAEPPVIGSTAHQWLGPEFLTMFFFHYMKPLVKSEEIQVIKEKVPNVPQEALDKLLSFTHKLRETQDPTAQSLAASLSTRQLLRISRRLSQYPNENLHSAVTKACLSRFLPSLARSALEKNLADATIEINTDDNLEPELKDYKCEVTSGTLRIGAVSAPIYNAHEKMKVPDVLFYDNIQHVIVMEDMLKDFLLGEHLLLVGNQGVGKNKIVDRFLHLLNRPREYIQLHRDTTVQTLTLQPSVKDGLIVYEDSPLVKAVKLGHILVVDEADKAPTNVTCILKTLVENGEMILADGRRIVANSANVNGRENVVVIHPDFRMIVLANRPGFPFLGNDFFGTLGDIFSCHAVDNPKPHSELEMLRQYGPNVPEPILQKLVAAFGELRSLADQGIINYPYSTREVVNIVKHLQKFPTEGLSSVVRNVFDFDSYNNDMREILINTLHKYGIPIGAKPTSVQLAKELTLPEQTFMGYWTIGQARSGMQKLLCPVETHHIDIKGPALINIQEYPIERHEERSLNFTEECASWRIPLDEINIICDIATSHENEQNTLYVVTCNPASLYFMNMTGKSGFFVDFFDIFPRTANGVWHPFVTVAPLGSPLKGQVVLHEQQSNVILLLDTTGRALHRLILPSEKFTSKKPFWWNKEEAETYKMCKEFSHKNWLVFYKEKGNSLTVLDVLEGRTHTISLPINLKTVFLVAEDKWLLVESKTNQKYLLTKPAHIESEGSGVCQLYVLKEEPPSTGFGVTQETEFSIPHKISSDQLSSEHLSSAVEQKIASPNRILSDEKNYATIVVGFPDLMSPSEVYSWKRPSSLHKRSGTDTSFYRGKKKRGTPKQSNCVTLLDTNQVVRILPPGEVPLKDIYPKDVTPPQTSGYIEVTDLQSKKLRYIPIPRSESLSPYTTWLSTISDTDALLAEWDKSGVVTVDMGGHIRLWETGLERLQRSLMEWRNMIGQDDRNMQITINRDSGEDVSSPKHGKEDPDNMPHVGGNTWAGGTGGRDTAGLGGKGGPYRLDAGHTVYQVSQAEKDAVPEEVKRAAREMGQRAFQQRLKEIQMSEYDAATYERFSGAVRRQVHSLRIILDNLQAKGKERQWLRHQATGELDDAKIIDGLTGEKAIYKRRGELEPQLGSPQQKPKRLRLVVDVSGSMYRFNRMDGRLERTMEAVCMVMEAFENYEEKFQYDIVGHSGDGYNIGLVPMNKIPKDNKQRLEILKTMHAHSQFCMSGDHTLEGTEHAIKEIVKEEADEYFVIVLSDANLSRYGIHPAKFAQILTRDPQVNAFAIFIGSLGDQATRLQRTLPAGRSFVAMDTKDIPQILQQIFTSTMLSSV
UniProt Q86VN1, sequence (Q86VN1 whole entry): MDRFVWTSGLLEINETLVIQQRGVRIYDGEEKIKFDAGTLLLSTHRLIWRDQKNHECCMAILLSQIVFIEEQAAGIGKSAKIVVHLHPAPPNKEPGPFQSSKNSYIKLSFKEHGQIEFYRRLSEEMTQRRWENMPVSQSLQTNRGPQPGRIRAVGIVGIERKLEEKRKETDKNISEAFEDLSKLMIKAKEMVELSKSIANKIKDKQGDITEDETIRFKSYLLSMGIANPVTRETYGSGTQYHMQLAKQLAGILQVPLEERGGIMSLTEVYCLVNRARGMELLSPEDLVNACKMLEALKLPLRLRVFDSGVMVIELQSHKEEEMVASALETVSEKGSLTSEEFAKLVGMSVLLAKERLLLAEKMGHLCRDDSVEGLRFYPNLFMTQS
UniProt Q86Y07, sequence (Q86Y07 whole entry): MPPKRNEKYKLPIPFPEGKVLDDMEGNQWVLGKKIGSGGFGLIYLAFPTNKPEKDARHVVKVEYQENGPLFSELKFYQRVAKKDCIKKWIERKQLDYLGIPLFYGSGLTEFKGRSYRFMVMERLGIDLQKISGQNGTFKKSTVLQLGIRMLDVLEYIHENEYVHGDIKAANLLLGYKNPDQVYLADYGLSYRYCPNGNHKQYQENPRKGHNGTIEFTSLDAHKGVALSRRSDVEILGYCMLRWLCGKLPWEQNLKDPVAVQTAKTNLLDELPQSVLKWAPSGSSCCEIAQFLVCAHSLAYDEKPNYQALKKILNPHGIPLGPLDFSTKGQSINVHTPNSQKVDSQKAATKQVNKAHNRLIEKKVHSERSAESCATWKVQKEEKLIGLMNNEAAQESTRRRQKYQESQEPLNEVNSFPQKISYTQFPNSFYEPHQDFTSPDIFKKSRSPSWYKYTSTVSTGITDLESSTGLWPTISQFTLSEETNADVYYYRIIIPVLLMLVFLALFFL
UniProt Q9Y6W5, sequence (Q9Y6W5 whole entry): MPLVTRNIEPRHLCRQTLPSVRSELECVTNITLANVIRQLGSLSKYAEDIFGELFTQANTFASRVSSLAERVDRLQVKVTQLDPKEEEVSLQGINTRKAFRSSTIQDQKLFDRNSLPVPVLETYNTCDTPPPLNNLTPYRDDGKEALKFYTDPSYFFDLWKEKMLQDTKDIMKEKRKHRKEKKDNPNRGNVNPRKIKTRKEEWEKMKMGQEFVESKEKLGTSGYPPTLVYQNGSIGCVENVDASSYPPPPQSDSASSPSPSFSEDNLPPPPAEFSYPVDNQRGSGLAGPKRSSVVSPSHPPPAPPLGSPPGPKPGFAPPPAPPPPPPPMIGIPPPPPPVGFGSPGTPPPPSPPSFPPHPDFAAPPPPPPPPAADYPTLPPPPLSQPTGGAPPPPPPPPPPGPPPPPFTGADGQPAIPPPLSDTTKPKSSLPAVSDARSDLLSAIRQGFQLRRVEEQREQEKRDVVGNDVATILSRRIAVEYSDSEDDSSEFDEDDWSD
UniProt Q8N1B4, sequence (Q8N1B4 whole entry): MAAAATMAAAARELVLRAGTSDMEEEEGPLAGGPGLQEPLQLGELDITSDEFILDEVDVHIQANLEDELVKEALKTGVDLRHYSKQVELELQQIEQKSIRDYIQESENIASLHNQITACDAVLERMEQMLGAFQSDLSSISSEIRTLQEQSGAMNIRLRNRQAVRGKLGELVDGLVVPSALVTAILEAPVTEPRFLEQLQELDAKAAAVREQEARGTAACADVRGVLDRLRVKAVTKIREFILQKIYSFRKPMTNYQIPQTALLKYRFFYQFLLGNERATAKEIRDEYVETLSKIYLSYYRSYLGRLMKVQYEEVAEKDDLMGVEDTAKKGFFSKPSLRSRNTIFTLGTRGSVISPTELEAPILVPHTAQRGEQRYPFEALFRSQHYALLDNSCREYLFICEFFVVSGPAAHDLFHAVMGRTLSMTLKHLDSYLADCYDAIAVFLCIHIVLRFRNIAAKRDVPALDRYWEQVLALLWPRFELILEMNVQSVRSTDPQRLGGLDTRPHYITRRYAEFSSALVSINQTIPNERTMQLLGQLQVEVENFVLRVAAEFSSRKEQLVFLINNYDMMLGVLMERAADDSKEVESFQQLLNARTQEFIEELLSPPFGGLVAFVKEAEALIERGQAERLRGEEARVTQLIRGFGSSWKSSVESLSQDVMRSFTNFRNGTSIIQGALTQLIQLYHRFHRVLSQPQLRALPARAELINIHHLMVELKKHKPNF
UniProt Q9Y2W2, sequence (Q9Y2W2 whole entry): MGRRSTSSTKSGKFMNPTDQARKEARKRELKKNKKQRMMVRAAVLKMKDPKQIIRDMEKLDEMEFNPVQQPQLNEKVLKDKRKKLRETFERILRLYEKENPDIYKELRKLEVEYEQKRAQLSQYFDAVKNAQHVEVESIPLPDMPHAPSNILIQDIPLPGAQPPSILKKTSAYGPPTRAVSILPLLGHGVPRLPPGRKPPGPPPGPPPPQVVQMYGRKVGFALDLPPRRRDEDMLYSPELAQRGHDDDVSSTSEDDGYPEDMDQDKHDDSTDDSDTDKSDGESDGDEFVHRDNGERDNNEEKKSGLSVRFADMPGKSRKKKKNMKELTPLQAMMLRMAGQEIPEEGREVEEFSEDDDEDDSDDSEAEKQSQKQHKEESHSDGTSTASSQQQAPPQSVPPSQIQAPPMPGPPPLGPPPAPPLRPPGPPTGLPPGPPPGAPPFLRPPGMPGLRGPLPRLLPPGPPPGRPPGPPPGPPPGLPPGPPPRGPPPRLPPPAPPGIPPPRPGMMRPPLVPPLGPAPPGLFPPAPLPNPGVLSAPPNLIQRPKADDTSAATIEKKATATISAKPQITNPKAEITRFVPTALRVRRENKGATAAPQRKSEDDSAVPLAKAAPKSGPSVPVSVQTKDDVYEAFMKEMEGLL

Target | thermal stability z-score (lipoamide; [1]) | thermal stability z-score (lipoamide; arsenate co-treatment: none) | thermal stability z-score (potassium arsenate)
VKORC1 (UniProt Q9BQB6) | -1.71 | -1.59 | 0.856
VKORC1L1 (UniProt Q8N0U8) | 0.529 | -0.318 | 0.544
VLDLR (UniProt P98155) | -0.517 | -0.526 | -0.86
VMP1 (UniProt Q96GC9) | -1.19 | -1.69 | -0.372
VPRBP (UniProt Q9Y4B6) | -0.368 | -0.578 | 0.0129
VPS4A (UniProt Q9UN37) | -0.367 | -0.472 | -0.19
VPS4B (UniProt O75351) | 0.854 | 0.498 | 0.314
VPS8 (UniProt Q8N3P4) | -0.0735 | -0.283 | -0.17
VPS11 (UniProt Q9H270) | -0.214 | -0.578 | 0.734
VPS13A (UniProt Q96RL7) | 1.04 | 0.949 | 0.945
VPS13B (UniProt Q7Z7G8) | 0.291 | 0.491 | -0.168
VPS13C (UniProt Q709C8) | 0.038 | -0.033 | -0.213
VPS13D (UniProt Q5THJ4) | 0.236 | 0.0716 | -0.13
VPS16 (UniProt Q9H269) | -0.305 | 0.0437 | 1.02
VPS18 (UniProt Q9P253) | -0.401 | -0.805 | 0.788
VPS25 (UniProt Q9BRG1) | -0.593 | -0.349 | 0.0183
VPS26A (UniProt O75436) | 0.178 | -0.395 | 0.335
VPS26B (UniProt Q4G0F5) | 0.123 | -0.118 | 0.0841
VPS28 (UniProt Q9UK41) | 0.513 | 0.681 | 0.492
VPS29 (UniProt Q9UBQ0) | -0.418 | -0.247 | -0.613
VPS33A (UniProt Q96AX1) | -0.0394 | -0.0312 | -0.027
VPS33B (UniProt Q9H267) | -0.333 | 0.0129 | 0.205
VPS35 (UniProt Q96QK1) | 0.247 | 0.378 | -0.541
VPS36 (UniProt Q86VN1) | -0.308 | -0.0675 | 0.0802
VPS37A (UniProt Q8NEZ2) | 0.0547 | 0.243 | 0.0736
VPS37B (UniProt Q9H9H4) | -0.0126 | 0.246 | -0.0299
VPS39 (UniProt Q96JC1) | -0.937 | -0.6 | 0.407
VPS41 (UniProt P49754) | -0.0442 | -0.511 | -0.161

Target | thermal stability z-score (lipoamide; [1]) | thermal stability z-score (lipoamide; arsenate co-treatment: none) | thermal stability z-score (potassium arsenate)
VPS45 (UniProt Q9NRW7) | 0.546 | 0.434 | 0.0668
VPS50 (UniProt Q96JG6) | -0.564 | -0.541 | 0.134
VPS51 (UniProt Q9UID3) | -0.0785 | 0.169 | -0.285
VPS52 (UniProt Q8N1B4) | -0.424 | -0.105 | -0.0774
VPS53 (UniProt Q5VIR6) | 0.332 | 0.126 | -0.0122
VPS72 (UniProt Q15906) | 1.96 | -0.00979 | -2.49
VRK1 (UniProt Q99986) | 0.263 | 0.423 | -0.267
VRK2 (UniProt Q86Y07) | -0.383 | -0.335 | -0.6
VTA1 (UniProt Q9NP79) | 0.703 | 0.296 | -0.12
VTI1A (UniProt Q96AJ9) | 0.054 | 0.419 | -0.0839
VTI1B (UniProt Q9UEU0) | -0.0224 | -0.376 | -0.184
VWA5A (UniProt O00534) | -0.245 | 0.147 | -0.235
VWA8 (UniProt A3KMH1) | -0.654 | -0.345 | -0.561
VWA9 (UniProt Q96SY0) | 0.159 | 0.404 | -0.114
WAC (UniProt Q9BTA9) | 0.192 | 0.112 | 0.126
WAPL (UniProt Q7Z5K2) | 0.0171 | 0.484 | -0.434
WARS2 (UniProt Q9UGM6) | -0.731 | -0.143 | -0.284
WARS (UniProt P23381) | 0.561 | 0.612 | 0.737
WASF1 (UniProt Q92558) | -0.121 | -0.0242 | -0.375
WASF2 (UniProt Q9Y6W5) | -0.14 | -0.155 | -0.206
WASL (UniProt O00401) | -0.128 | 0.327 | -1.26
WBP2 (UniProt Q969T9) | 0.689 | 0.465 | -0.0559
WBP4 (UniProt O75554) | 1.32 | 0.617 | -2.19
WBP11 (UniProt Q9Y2W2) | 0.102 | 0.283 | 0.254
WBSCR16 (UniProt Q96I51) | 1.56 | 0.878 | 0.683
WBSCR22 (UniProt O43709) | -0.223 | -0.46 | -0.902
WDFY1 (UniProt Q8IWB7) | -0.112 | -0.423 | -1.85
